Source: PubChem BioAssay (NCI)
Several values for one entry are separate records, joined by “and”; a condition that tells them apart may be missing. Equal entries are not always repeated.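 Assay format: 96-well plates, 48-hour exposure. Here, GI50 denotes the concentration required for 50% inhibition of growth. Definition used: TGI = concentration required for complete inhibition of growth.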

Columns and labels:
Assay in all cases: NCI-60 cell line screen, 48 h
[1] = system: HCC-2998 colon
[2] = system: HCT-116 colon
[3] = system: HOP-62 NSCLC
[4] = system: HT29 colon
[5] = system: IGROV1 ovarian
[6] = system: MALME-3M melanoma
[7] = system: OVCAR-3 ovarian
[8] = system: SK-OV-3 ovarian
[9] = system: TK-10 renal
[10] = system: NCI-H522 lung

| SMILES | GI50 [1] | TGI [1] | GI50 [2] | TGI [2] | GI50 [3] | TGI [3] | GI50 [4] | TGI [4] | GI50 [5] | TGI [5] | GI50 [6] | TGI [6] | GI50 [7] | TGI [7] | GI50 [8] | TGI [8] | GI50 [9] | TGI [9] | GI50 [10] | TGI [10] |
| --- | --- | --- | --- | --- | --- | --- | --- | --- | --- | --- | --- | --- | --- | --- | --- | --- | --- | --- | --- | --- |
| COC1=C(OC)[C@]2(OC)c3c(O)c(OC)c4c(c3O[C@@]23O[C@@H](c2ccccc2)CC=C3C1=O)[C@@H](O)C[C@H](c1ccccc1)O4 | 0.564 µM | 1.96 µM | 0.183 µM | 0.38 µM | 1.54 µM | 3.2 µM | 0.224 µM | 0.565 µM | 0.932 µM | 2.44 µM | 0.377 µM | 1.33 µM | 0.204 µM | 0.517 µM | 1.76 µM | 3.45 µM | 0.251 µM | 0.718 µM | – | – |
| CC(C)c1cccc(C(C)C)c1NC(=O)CCC(=O)NN | – | > 100 µM | – | > 100 µM | – | > 100 µM | – | > 100 µM | – | > 100 µM | – | > 100 µM | – | > 100 µM | – | > 100 µM | – | > 100 µM | – | – |
| CC(=O)[O][Bi]([c]1ccccc1)[c]1ccccc1 | – | – | 4.29 µM | 13.7 µM | 17 µM | 33.8 µM | 18.1 µM | 32.3 µM | 2.48 µM | 6.77 µM | – | – | 11.8 µM | 34.3 µM | 16.6 µM | 30.5 µM | 1.85 µM | 6.38 µM | 1.56 µM | 3.11 µM |
| Cn1c(=N)n[n+]([O-])c2ccccc21 | – | 39.1 µM | – | > 100 µM | – | 4.29 µM and 4.98 µM | – | 4.88 µM and 15.1 µM | – | 10.7 µM and 11.6 µM | – | 6.15 µM | – | – | – | 46.9 µM and 52.5 µM | – | 70 µM and > 59.4 µM | – | 10.7 µM and 15.6 µM |
| c1ccc2c3c(ccc2c1)-c1c(ccc2c(NCCCCN4CCCCC4)cccc12)C3 | 1.63 µM | 3.49 µM | 1.63 µM | 2.98 µM | 1.57 µM | 2.91 µM | – | – | 2.09 µM | 8.03 µM | – | – | 1.21 µM | 2.52 µM | 10 µM | 35.3 µM | 2.24 µM | 4.57 µM | 3.42 µM | 9.22 µM |
| COc1ccc2c(c1)C(=O)c1c-2c(NCCN(C)C)nc2ccccc12 | 2.52 µM | 13.4 µM | 15.1 µM | 28.3 µM | 14.3 µM | 27.4 µM | 4.41 µM | 15.5 µM | 1.86 µM | 7.14 µM | 12.4 µM | 32.7 µM | 2.29 µM | 9.34 µM | – | – | 8.19 µM | 28.8 µM | 6.92 µM | 20.9 µM |
| O=NN(CCCl)C(=O)N[C@H]1CCCC[C@@H]1Cl | – | > 100 µM | – | > 100 µM | – | – | – | > 100 µM | – | > 100 µM | – | > 100 µM | – | > 100 µM | – | > 100 µM | – | > 100 µM | – | > 100 µM |
| Cc1ccc(N2C(=O)C(Cl)=C(Cl)C2=O)cc1 | – | > 100 µM | – | 32.9 µM | – | > 100 µM | – | 33.3 µM | – | 43.4 µM | – | 33.7 µM | – | 30.5 µM | – | > 100 µM | – | – | – | 28.6 µM |
| COC(=O)Cc1cc(=O)n2c([nH]c3ccccc32)c1C#N | – | > 100 µM | – | > 100 µM | – | > 100 µM | – | > 100 µM | – | > 100 µM | – | > 100 µM | – | > 100 µM | – | > 100 µM | – | > 100 µM | – | – |
| Nc1ccccc1C#Cc1ccccc1C#Cc1cnccn1 | – | – | 17 µM | 36.4 µM | 21.1 µM | 54.9 µM | 24.8 µM | 53 µM | – | – | – | – | 9.79 µM | 25.8 µM | 22.2 µM | 55 µM | – | – | 9.05 µM | 30.2 µM |
| CCOC(=O)N1C=CC(=C2C(=C3C=CN(C(=O)OCC)C=C3)C(=C3C=CN(C(=O)OCC)C=C3)C2=C2C=CN(C(=O)OCC)C=C2)C=C1 | – | – | – | 56.1 µM | – | > 100 µM | – | > 100 µM | – | 85.3 µM | – | 64 µM | – | 81.1 µM | – | > 100 µM | – | 81.6 µM | – | 65.4 µM |
| O=C(O)[C@@H](NS(=O)(=O)c1ccc([N+](=O)[O-])cc1)c1ccccc1 | – | > 100 µM | – | – | – | – | – | > 100 µM | – | > 100 µM | – | > 100 µM | – | > 100 µM | – | > 100 µM | – | > 100 µM | – | > 100 µM |
| COc1ccc(C(c2cc3c(cc2O)OCO3)N2CCOCC2)cc1OC (configuration not stated) | – | – | – | 22.9 µM | – | 29.1 µM | – | 26 µM | – | 29.6 µM | – | 25.7 µM | – | 20.5 µM | – | 28.7 µM | – | 26.1 µM | – | 15.1 µM |
| c1ccc2c(CNCCCCCCCCCCCCNCc3cccc4ccccc34)cccc2c1 | – | – | – | 2.95 µM | – | 4.56 µM | – | 3.03 µM | – | 3.39 µM | – | 3.66 µM | – | 3.84 µM | – | 26.5 µM | – | 4.74 µM | – | 3.35 µM |
| CC(C)(C)c1cc(-c2nc3c(F)c(F)c(F)c(F)c3[nH]2)cc(C(C)(C)C)c1O | – | – | > 100 µM | > 100 µM | > 100 µM | > 100 µM | > 100 µM | > 100 µM | > 100 µM | > 100 µM | > 100 µM | > 100 µM | > 100 µM | > 100 µM | > 100 µM | > 100 µM | > 100 µM | > 100 µM | > 100 µM | > 100 µM |
| COc1ccccc1NC(=O)C(CC(C(=O)Nc1ccccc1OC)/C(C)=N/NC(=O)c1ccccc1O)/C(C)=N/NC(=O)c1ccccc1O (configuration not stated) | – | > 100 µM | – | – | – | > 100 µM | – | > 100 µM | – | > 100 µM | – | > 100 µM | – | > 100 µM | – | > 100 µM | – | > 100 µM | – | > 100 µM |
| Cc1ccc(NC(=O)c2cc3ccccc3cc2O)c(C)c1.Cc1ccc(NC(=O)c2cc3ccccc3cc2[O-])c(C)c1.[Ni+2] | 2.63 µM | 6.74 µM | 2.79 µM | 11.4 µM | 3.87 µM | 17 µM | 3.14 µM | 10.9 µM | – | – | 3.4 µM | 14.3 µM | 4.23 µM | 20.6 µM | 2.9 µM | 11.6 µM | 4.66 µM | 17 µM | 3.08 µM | 10.5 µM |
| Cc1ccc2c(c1)C=CC(C#N)N2C(=O)Oc1ccccc1 (configuration not stated) | – | 31.2 µM | – | > 100 µM | – | – | – | 35.3 µM | – | > 100 µM | – | > 100 µM | – | – | – | – | – | 94.2 µM | – | 41 µM |
